Experimental data published in patent US11548891B1, “Quaternary ammonium salts of phenanthroindolizidine and phenanthroquinolizidine alkaloids as hypoxia-targeted anticancer agents” (BATTERJEE MEDICAL COLLEGE, priority 2022, dated 2023).
Where two headings read alike, the source gives them in different places.

Columns and labels:
PBS (pH 7.4) solubility = assay type: physicochemical
Procedure: (§1) Water solubility, log D, and PAMPA-BBB were evaluated using the protocols as described in Omran, et. al. [Omran, Z., et. al., Chem. Pharm. Bull., 2019, 67, 1208-1210, incorporated herein by reference in its entirety].

LogD = assay type: physicochemical
Procedure: as §1

[1] = BBB-Parallel Artificial Membrane Permeability Assay (BBB-PAMPA); assay type: in vitro ADME
Procedure: The physicochemical properties of the new compounds were evaluated (Table 1). […] Consequently, these derivatives lost their BBB penetrability, as predicted by the BBB-Parallel Artificial Membrane Permeability Assay (BBB-PAMPA), whereas their parent alkaloids had free passage through the BBB.
as §1

[2] = Mouse microsomal liver stability assay; details: male, Balb/c, mouse, 2 μM, pH 7.4
Procedure: Protoc. […] Microsomal incubations were carried out in 96-well plates in 5 aliquots of 40 μL each. […] Control incubations were performed by replacing the NADPH-cofactor system with PBS. The additional control incubations in PBS (with 3.3 mM MgCl2) without added microsomes were carried out in this study. […] The incubations were performed in duplicates. Five time points over 40 min had been analyzed. The reactions were stopped by adding 12 volumes of 90% acetonitrile-water to incubation aliquots, followed by protein sedimentation by centrifuging at 5500 rpm for 3 min. The supernatants were analyzed using LC-MS as mentioned above.

HEK293 = assay: Cytotoxicity under normoxia (MTT), HEK293; assay type: cell-based, Human; details: Homo sapiens, HEK293, read-out: IC50 HEK293
Procedure: (§2) The cytotoxicity of the compounds 5a-c and their parent alkaloids was evaluated by the 3-[4,5-dimethylthiazole-2-yl]-2,5-diphenyltetrazolium bromide (MTT) assay against 5 cancerous and 2 non-cancerous cell lines (Table 4).
(§3) The eight cell lines HEK293 (Human embryonic kidney 293), CHO-Kt (Chinese hamster ovary K1), MCF-7 cells (Human breast adenocarcinoma), HCT116 (human colorectal carcinoma), RKO (Human rectal carcinoma), SW480 (human colorectal carcinoma), H460 (Human lung cancer), and MRCS (Normal human fetal lung fibroblast), were obtained from the ATCC. The cell lines were routinely grown in alpha minimum essential medium (α-MEM) containing 5% fetal calf serum (FCS). The appropriate number of cells (HCT116=400 cells/well, H460 cells=600 cells/well) were seeded into 96-well plates under normoxic or hypoxic conditions. Cells were plated in 100 μL α-MEM containing 10% FCS, 10 mM D-Glucose and 0.2 mM 20-deoxycytidine. After incubation for 2 h, the compounds were added at the appropriate concentration and incubated for further 4 h. The cells were then washed three times with drug-free α-MEM (containing 5% FCS and pen/strep). The plates were then incubated for 5 days under normoxic conditions. The cells were stained with sulphorhodamine B to measure total cells as per the standard procedure described in Skehan, et. al. [Skehan, P., et. al., J. Natl. Cancer Inst., 1990, 82, 1107-1112, incorporated herein by reference in its entirety]. The IC50 was determined by interpolation as the compound concentration reducing staining to 50% of controls on the same plate as per the standard procedure described in Guise, et. al. [Guise, C. P., et. al., Biochem. Pharmacol., 2007, 74, 810-820, incorporated herein by reference in its entirety].

CHO-K1 = assay: Cytotoxicity under normoxia (MTT), CHO-K1; assay type: cell-based, Chinese hamster; details: Cricetulus griseus, CHO-K1, read-out: IC50 CHO-K1
Procedure: as §2, §3

MCF7 = assay: Cytotoxicity under normoxia (MTT), MCF7; assay type: cell-based, Human; details: Homo sapiens, MCF7, read-out: IC50 MCF7
Procedure: as §2, §3

HCT116 [3] = assay: Cytotoxicity under normoxia (MTT), HCT116; assay type: cell-based, human; details: Homo sapiens, HCT-116, read-out: IC50 HCT116
Procedure: as §2, §3

RKO = assay: Cytotoxicity under normoxia (MTT), RKO; assay type: cell-based, Human; details: Homo sapiens, RKO, read-out: IC50 RKO
Procedure: as §2, §3

SW480 = assay: Cytotoxicity under normoxia (MTT), SW480; assay type: cell-based, human; details: Homo sapiens, SW480, read-out: IC50 SW480
Procedure: as §2, §3

MRC5 = assay: Cytotoxicity under normoxia (MTT), MRC5; assay type: cell-based, human; details: Homo sapiens, MRC5, read-out: IC50 MRC5
Procedure: as §2, §3

HCT116 [4] = assay: Cytotoxicity under normoxia and hypoxia (anaerobic chamber), HCT116; assay type: cell-based, human; details: for IC50: 4 h exposure
Procedure: (§4) The ability of the designed prodrugs to liberate the active alkaloids in hypoxic tumors was evaluated by testing them under hypoxic conditions using an anaerobic chamber. The three prodrugs 5a-c and their parent alkaloids as well as the reference compounds PR-104A, the parent alcohol form of the phosphate pre-prodrug PR-104, and evofosfamide were tested using the HCT116 and H460 cell lines under both normoxic and hypoxic conditions (Table 5). The prodrugs were much less cytotoxic than the parent drugs, in agreement with the results using the other cell lines described above (see FIG. 6).
as §3

H460 = assay: Cytotoxicity under normoxia and hypoxia (anaerobic chamber), H460; assay type: cell-based, Human; details: for IC50: 4 h exposure
Procedure: as §4, §3

[5] = Homo sapiens, HCT-116, HTC 116, hypoxia, read-out: IC50 (Hypoxia)
[6] = Homo sapiens, HCT-116, HTC 116, normoxia, read-out: IC50 (Normoxia)
[7] = Homo sapiens, NCI-H460, H460, hypoxia, read-out: IC50 (Hypoxia)
[8] = Homo sapiens, NCI-H460, H460, normoxia, read-out: IC50 (Normoxia)

COc1cc2c3c(c4cc(OC)c(OC)cc4c2cc1OC)C[N+]1(Cc2c([N+](=O)[O-])ncn2C)CCC[C@H]1C3.[Br-] (stereo partly drawn) [Compound 5b, (13aS)-2,3,6,7-tetramethoxy-10-((1-methyl-4-nitro-1H-imidazol-5-yl)methyl)-10,11,12,13,13a, 14-hexahydro-9H-dibenzo[f,h]pyrrolo[1,2-b]isoquinolin-10-ium bromide]
PBS (pH 7.4) Solubility μM Mean ± SE (PBS (pH 7.4) solubility): 162 ± 3 μM
LogD Mean ± SE (LogD): 0.38 ± 0.04
Permeability (Papp) Log [10^−6 cm/s] Mean ± SE [1]: <−7 Log [10^−6 cm/s]
Kel, min^−1 (elimination rate constant) [2]: 0.002 ± 0 min⁻¹
compound metabolized into the parent drug ([2]; microsomes): less than 1%
IC50 (HEK293): 0.95 ± 0.174 µM
IC50 (CHO-K1): 3.49 ± 0.843 µM
IC50 (MCF7): 1.5 ± 0.128 µM
IC50 (HCT116 [3]): 3.3 ± 1.56 µM
IC50 (RKO): 4.06 ± 0.181 µM
IC50 (SW480): 7.25 ± 0.49 µM
IC50 (MRC5): 3.31 ± 0.163 µM
HCR (Hypoxia Cytotoxicity Ratio = normoxic IC50/hypoxic IC50) (HCT116 [4]): 11.3
DR (Deactivation Ratio = IC50 (prodrug)/IC50 (parent drug)) (HCT116 [4]; HTC 116, normoxia): 689
IC50 (HCT116 [4]; [5]): 1.46 µM
IC50 (HCT116 [4]; [6]): 4.49 µM
HCR (Hypoxia Cytotoxicity Ratio = normoxic IC50/hypoxic IC50) (H460): 24
DR (Deactivation Ratio = IC50 (prodrug)/IC50 (parent drug)) (H460; H460, normoxia): 719
IC50 (H460; [7]): 3.22 µM
IC50 (H460; [8]): 77.6 µM
melting point: 165 to 167 °C

COc1cc2c3c(c4cc(OC)c(OC)cc4c2cc1OC)C[N+]1(Cc2c([N+](=O)[O-])ncn2C)CCC[C@@H]1C3.[Br-] (stereo partly drawn) [Compound 5c, (13aR)-2,3,6,7-tetramethoxy-10-((1-methyl-4-nitro-1H-imidazol-5-yl)methyl)-10,11,12,13,13a, 14-hexahydro-9H-dibenzo[f,h]pyrrolo[1,2-b]isoquinolin-10-ium bromide]
IC50 (MCF7): 8.05 ± 0.343 µM
IC50 (HCT116 [3]): 9.02 ± 1.13 µM
IC50 (RKO): 8.82 ± 3.08 µM
IC50 (SW480): 9.86 ± 1.69 µM
IC50 (MRC5): 3.94 ± 0.127 µM
HCR (Hypoxia Cytotoxicity Ratio = normoxic IC50/hypoxic IC50) (HCT116 [4]): 1.5
DR (Deactivation Ratio = IC50 (prodrug)/IC50 (parent drug)) (HCT116 [4]; HTC 116, normoxia): 128
IC50 (HCT116 [4]; [5]): 3.02 µM
IC50 (HCT116 [4]; [6]): 9.05 µM
HCR (Hypoxia Cytotoxicity Ratio = normoxic IC50/hypoxic IC50) (H460): 7.8
DR (Deactivation Ratio = IC50 (prodrug)/IC50 (parent drug)) (H460; H460, normoxia): 293
IC50 (H460; [7]): 6.5 µM
IC50 (H460; [8]): 51 µM
melting point: 185 to 187 °C

Cn1c(COP(=O)(NCCBr)NCCBr)cnc1[N+](=O)[O-] [Evofosfamide, evofosfamide]
HCR (Hypoxia Cytotoxicity Ratio = normoxic IC50/hypoxic IC50) (HCT116 [4]; HTC 116): 85
IC50 (HCT116 [4]; [5]): 0.0201 µM
IC50 (HCT116 [4]; [6]): 0.0239 µM
HCR (Hypoxia Cytotoxicity Ratio = normoxic IC50/hypoxic IC50) (H460; H460): 251
IC50 (H460; [7]): 0.0172 µM
IC50 (H460; [8]): 4.32 µM

COC(=O)Nc1nc2ccc(C(=O)c3ccccc3)cc2[nH]1 [Mebendazole]
LogD Mean ± SE (LogD): 3.26 ± 0.01

Cc1nccn1CC1CCc2c(c3ccccc3n2C)C1=O (centres unmarked) [Ondansetron]
PBS (pH 7.4) Solubility μM Mean ± SE (PBS (pH 7.4) solubility): 96 ± 3 μM

CS(=O)(=O)OCCN(CCBr)c1c(C(=O)NCCO)cc([N+](=O)[O-])cc1[N+](=O)[O-] [PR-104A]
HCR (Hypoxia Cytotoxicity Ratio = normoxic IC50/hypoxic IC50) (HCT116 [4]; HTC 116): 10.5
IC50 (HCT116 [4]; HTC 116, hypoxia, read-out: IC50 (Hypoxia)): 0.861 µM
IC50 (HCT116 [4]; HTC 116, normoxia, read-out: IC50 (Normoxia)): 16.5 µM
HCR (Hypoxia Cytotoxicity Ratio = normoxic IC50/hypoxic IC50) (H460; H460): 2.5
IC50 (H460; H460, hypoxia, read-out: IC50 (Hypoxia)): 0.533 µM
IC50 (H460; H460, normoxia, read-out: IC50 (Normoxia)): 1.34 µM

CNC(=C[N+](=O)[O-])NCCSCc1ccc(CN(C)C)o1 [Ranitidine]
Permeability (Papp) Log [10^−6 cm/s] Mean ± SE [1]: <−7 Log [10^−6 cm/s]
